Test results published in PubChem BioAssay (NCI).
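1) Cells in 96-well plates. 2) Compound, 48 h, 5 concentrations. 3) Linear interpolation between surrounding doses. 4) Unreached endpoint = highest concentration. The concentration for full growth arrest is given as TGI.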

Legend:
Test in all cases: NCI-60 cell line screen, 48 h
[1] = system: BT-549 breast
[2] = system: CAKI-1 renal
[3] = system: DU-145 prostate
[4] = system: HT29 colon
[5] = system: IGROV1 ovarian
[6] = system: KM12 colon
[7] = system: LOX IMVI melanoma
[8] = system: M14 melanoma
[9] = system: MDA-MB-231 breast
[10] = system: NCI/ADR-RES ovarian
[11] = system: OVCAR-3 ovarian
[12] = system: OVCAR-4 ovarian
[13] = system: RPMI-8226 leukemia
[14] = system: SF-268 CNS
[15] = system: SK-MEL-2 melanoma
[16] = system: SK-MEL-28 melanoma
[17] = system: SN12C renal
[18] = system: UACC-257 melanoma
[19] = system: TK-10 renal
[20] = system: UO-31 renal

Row | SMILES | TGI [1] | TGI [2] | TGI [3] | TGI [4] | TGI [5] | TGI [6] | TGI [7] | TGI [8] | TGI [9] | TGI [10] | TGI [11] | TGI [12] | TGI [13] | TGI [14] | TGI [15] | TGI [16] | TGI [17] | TGI [18] | TGI [19] | TGI [20]
1 | CCN(CC)c1ccc2cc(C(=O)Nc3ccc(C)cc3)c(=N)oc2c1 | > 100 µM | > 100 µM | > 100 µM | > 100 µM | > 100 µM | > 100 µM | > 100 µM | > 100 µM | > 100 µM | > 100 µM | > 100 µM | > 100 µM | > 100 µM | > 100 µM | > 100 µM | > 100 µM | > 100 µM | > 100 µM | – | –
2 | N#Cc1c(-c2ccc(Cl)cc2)c2c(N=Nc3c(O)ccc4ccccc34)[nH]nc2[nH]c1=O | 0.619 µM | 1.26 µM | 1.07 µM | 1.87 µM | 1.14 µM | – | 0.439 µM | 0.563 µM | 1.08 µM | 0.777 µM | 0.0736 µM | 3.68 µM | – | 1.66 µM | 0.943 µM | – | 2.05 µM | – | 1.8 µM | 1.05 µM
3 | Nc1ccc(-c2nc3ccccc3s2)cc1C#Cc1ccccc1 | 34.7 µM | 37.2 µM | 72.5 µM | 35.4 µM | 28.4 µM | 37.9 µM | 36 µM | 30.6 µM | 47.8 µM | 48.6 µM | 33.1 µM | 44 µM | 47.2 µM | 54.2 µM | – | – | 37.1 µM | 31.3 µM | 30.3 µM | 36.7 µM
4 | COc1c2c(cc3c1C1(O)Cc4ccc5c(c4C[N+]1(C)CC3)OCO5)OCO2 (stereo not given) | > 100 µM | > 100 µM | > 100 µM | > 100 µM | > 100 µM | > 100 µM | > 100 µM | > 100 µM | > 100 µM | > 100 µM | > 100 µM | > 100 µM | > 100 µM | > 100 µM | > 100 µM | > 100 µM | > 100 µM | > 100 µM | > 100 µM | –
5 | Cc1ccc(S(=O)(=O)N/N=C2/CC3CCC4CC2CC34)cc1 (stereo not given) | > 100 µM | > 100 µM | > 100 µM | > 100 µM | > 100 µM | > 100 µM | > 100 µM | > 100 µM | > 100 µM | > 100 µM | > 100 µM | – | > 100 µM | > 100 µM | > 100 µM | > 100 µM | > 100 µM | > 100 µM | > 100 µM | > 100 µM
6 | COc1cc2ccc1OCc1cccc(n1)COc1ccc(cc1OC)C=NCCNCCNCCN=C2 | > 100 µM | > 100 µM | > 100 µM | > 100 µM | > 100 µM | > 100 µM | > 100 µM | > 100 µM | > 100 µM | > 100 µM | > 100 µM | > 100 µM | – | > 100 µM | > 100 µM | – | > 100 µM | > 100 µM | > 100 µM | > 100 µM
7 | O=C(O)c1ccc(Nc2nc3cc(C(F)(F)F)ccc3n3cccc23)cc1 | > 100 µM | > 100 µM | > 100 µM | 30.9 µM | > 100 µM | > 100 µM | 30.5 µM | 80.5 µM | 49.8 µM | > 100 µM | > 100 µM | – | 68.6 µM | > 100 µM | > 100 µM | > 100 µM | – | 71.6 µM | > 100 µM | > 100 µM
8 | COc1nc2c(c(=O)n1C)N=C(c1ccc(Cl)cc1)CC(c1ccccc1)N2 (stereo not given) | 67.5 µM | 74.5 µM | > 100 µM | 47.4 µM | 51.5 µM | 33.8 µM | 52.2 µM | > 100 µM | 53.7 µM | > 100 µM | > 100 µM | 48.5 µM | 54 µM | – | 42.9 µM | > 100 µM | 54.4 µM | 67.9 µM | – | > 100 µM
9 | NC(=Nc1cccc(Cl)c1)c1ccccc1N | > 100 µM | > 100 µM | > 100 µM | > 100 µM | > 100 µM | > 100 µM | > 100 µM | > 100 µM | > 100 µM | > 100 µM | > 100 µM | > 100 µM | > 100 µM | > 100 µM | – | > 100 µM | – | > 100 µM | > 100 µM | > 100 µM
10 | NC(=O)c1c(NC=O)ncn1C1OCC(O)C(O)C1O (stereo not given) | > 100 µM | > 100 µM | > 100 µM | > 100 µM | > 100 µM | > 100 µM | > 100 µM | – | > 100 µM | > 100 µM | > 100 µM | > 100 µM | > 100 µM | > 100 µM | > 100 µM | – | > 100 µM | > 100 µM | > 100 µM | > 100 µM
11 | C=CCOc1ccccc1C1(O)c2ccccc2C2=NCCCN21 (stereo not given) | > 100 µM | > 100 µM | > 100 µM | 36.2 µM | 44.7 µM | > 100 µM | > 100 µM | 39.8 µM | > 100 µM | > 100 µM | 59.7 µM | > 100 µM | > 100 µM | > 100 µM | – | 52.2 µM | > 100 µM | > 100 µM | > 100 µM | > 100 µM
12 | CCn1c2ccccc2c2ccc(C3C(C(=O)OC)=C(C)NC(C)=C3C(=O)OC)cc21 | > 100 µM | > 100 µM | > 100 µM | > 100 µM | > 100 µM | > 100 µM | > 100 µM | – | > 100 µM | > 100 µM | > 100 µM | > 100 µM | 80.8 µM | > 100 µM | – | > 100 µM | > 100 µM | > 100 µM | > 100 µM | > 100 µM
13 | CC/C=C/C[C@H](O)[C@H]1C[C@H]2O[C@H](CC(=O)OC)C[C@H]2O1 | > 100 µM | > 100 µM | > 100 µM | > 100 µM | > 100 µM | > 100 µM | > 100 µM | > 100 µM | > 100 µM | > 100 µM | > 100 µM | > 100 µM | > 100 µM | > 100 µM | > 100 µM | > 100 µM | > 100 µM | – | – | > 100 µM
